According to the CheMixHub viscosity set:
± gives the uncertainty stated by the source.

Assay: xn = mol fraction of the nth substance listed

CC(C)CC(C)(C)C + Cc1ccccc1
101 kPa
Conditions | viscosity [mPa·s]
298.15 K, x1 = 0.1138 | 0.519 ± 0.004
298.15 K, x1 = 0.2032 | 0.498 ± 0.004
298.15 K, x1 = 0.2796 | 0.485 ± 0.004
298.15 K, x1 = 0.3319 | 0.477 ± 0.004
298.15 K, x1 = 0.4044 | 0.47 ± 0.004
298.15 K, x1 = 0.4365 | 0.467 ± 0.003
298.15 K, x1 = 0.4983 | 0.464 ± 0.003
298.15 K, x1 = 0.618 | 0.459 ± 0.003
298.15 K, x1 = 0.6934 | 0.458 ± 0.003
298.15 K, x1 = 0.7315 | 0.461 ± 0.004
298.15 K, x1 = 0.8036 | 0.463 ± 0.004
298.15 K, x1 = 0.8966 | 0.467 ± 0.004
298.15 K, x1 = 0.9292 | 0.47 ± 0.004
298.15 K, x1 = 0.9743 | 0.474 ± 0.004
308.15 K, x1 = 0.0644 | 0.4877 ± 0.0051
308.15 K, x1 = 0.1217 | 0.4728 ± 0.005
308.15 K, x1 = 0.1933 | 0.4593 ± 0.0049
308.15 K, x1 = 0.2715 | 0.4474 ± 0.0048
308.15 K, x1 = 0.3689 | 0.4362 ± 0.0047
308.15 K, x1 = 0.4483 | 0.4305 ± 0.0046
308.15 K, x1 = 0.5805 | 0.4258 ± 0.0046
308.15 K, x1 = 0.6997 | 0.425 ± 0.0046
308.15 K, x1 = 0.8297 | 0.4265 ± 0.0046

CCOCC + COCCO
298.15 K, 101 kPa
Conditions | viscosity [mPa·s]
x2 = 0.0976 | 0.2661 ± 0.009
x2 = 0.1958 | 0.307 ± 0.0099
x2 = 0.2944 | 0.363 ± 0.011
x2 = 0.3936 | 0.4399 ± 0.013
x2 = 0.4933 | 0.5713 ± 0.016
x2 = 0.5936 | 0.6782 ± 0.018
x2 = 0.6944 | 0.8546 ± 0.022
x2 = 0.7957 | 1.065 ± 0.027
x2 = 0.8976 | 1.33 ± 0.032

C[NH+]1CCCC1=O.Cc1ccc(S(=O)(=O)[O-])cc1 + O
viscosity [mPa·s], 100 kPa
Conditions | x1 = 0.00179 | x1 = 0.003588 | x1 = 0.005313 | x1 = 0.008042 | x1 = 0.01069 | x1 = 0.01417 | x1 = 0.02116 | x1 = 0.02631 | x1 = 0.03141
293.15 K | 1.079 ± 0.012 | 1.149 ± 0.013 | 1.212 ± 0.014 | 1.311 ± 0.015 | 1.404 ± 0.016 | 1.533 ± 0.018 | 1.806 ± 0.021 | 2.029 ± 0.023 | 2.274 ± 0.026
298.15 K | 0.9575 ± 0.011 | – | 1.073 ± 0.012 | 1.157 ± 0.013 | – | 1.358 ± 0.016 | – | 1.819 ± 0.021 | 2.048 ± 0.024
303.15 K | 0.8523 ± 0.0099 | 0.9062 ± 0.01 | 0.9554 ± 0.011 | – | – | 1.201 ± 0.014 | 1.42 ± 0.016 | 1.611 ± 0.019 | 1.827 ± 0.021
308.15 K | 0.7695 ± 0.0089 | 0.8124 ± 0.0094 | 0.8523 ± 0.0099 | 0.9156 ± 0.011 | 0.9784 ± 0.011 | – | – | 1.444 ± 0.017 | 1.64 ± 0.019

O=C1CCCCC1 + CCCCCO
303.15 K, 101 kPa
Conditions | viscosity [mPa·s]
x1 = 0.1012 | 2.388 ± 0.022
x1 = 0.2586 | 1.983 ± 0.018
x1 = 0.4201 | 1.737 ± 0.016
x1 = 0.5809 | 1.622 ± 0.015
x1 = 0.7407 | 1.565 ± 0.014

CCS + CCO
298.15 K, 101 kPa
Conditions | viscosity [mPa·s]
x1 = 0.026 | 1.048 ± 0.008
x1 = 0.072 | 0.9731 ± 0.0074
x1 = 0.0942 | 0.9305 ± 0.0071
x1 = 0.1067 | 0.8559 ± 0.0065
x1 = 0.1258 | 0.8385 ± 0.0064
x1 = 0.2634 | 0.6525 ± 0.0051
x1 = 0.2941 | 0.6119 ± 0.0048
x1 = 0.3753 | 0.5821 ± 0.0047
x1 = 0.6123 | 0.4083 ± 0.0035

O=C1CCCCC1 + CC(C)CO
298.15 K, 101 kPa
Conditions | viscosity [mPa·s]
x1 = 0.1012 | 2.58 ± 0.03
x1 = 0.2016 | 2.15 ± 0.03
x1 = 0.299 | 1.9 ± 0.02
x1 = 0.3994 | 1.77 ± 0.02
x1 = 0.5008 | 1.72 ± 0.02
x1 = 0.5978 | 1.7 ± 0.02
x1 = 0.6982 | 1.69 ± 0.02
x1 = 0.7981 | 1.71 ± 0.02
x1 = 0.8985 | 1.77 ± 0.02

CC(C)CC(C)(C)C + CCCCCCCC
viscosity [mPa·s]
Conditions | x1 = 0.2 | x1 = 0.4 | x1 = 0.5 | x1 = 0.6 | x1 = 0.8
293.15 K, 101 kPa | 0.528 ± 0.014 | 0.519 ± 0.014 | – | 0.51 ± 0.014 | 0.503 ± 0.013
298.2 K, 100 kPa | – | – | 0.4882 ± 0.02 | – | –
313.15 K, 101 kPa | 0.421 ± 0.011 | 0.415 ± 0.011 | – | 0.408 ± 0.011 | 0.403 ± 0.011

CCOCC + CCCO
101 kPa
Conditions | viscosity [mPa·s]
298.15 K, x1 = 0.09896 | 1.404 ± 0.014
298.15 K, x1 = 0.1949 | 1.024 ± 0.01
298.15 K, x1 = 0.3032 | 0.753 ± 0.0078
298.15 K, x1 = 0.4198 | 0.562 ± 0.0058
298.15 K, x1 = 0.5476 | 0.427 ± 0.0044
298.15 K, x1 = 0.6864 | 0.336 ± 0.0035
298.15 K, x1 = 0.8353 | 0.272 ± 0.0028
303.16 K, x1 = 0.07 | 1.682 ± 0.2
303.16 K, x1 = 0.15 | 1.591 ± 0.19
303.16 K, x1 = 0.25 | 1.417 ± 0.17
303.16 K, x1 = 0.37 | 1.237 ± 0.15
303.16 K, x1 = 0.47 | 0.8879 ± 0.12
303.16 K, x1 = 0.59 | 0.6163 ± 0.085
303.16 K, x1 = 0.73 | 0.4922 ± 0.071
303.16 K, x1 = 0.78 | 0.3645 ± 0.057
303.16 K, x1 = 0.92 | 0.2804 ± 0.047
